Laboratory results from US11337976B2 (Plexxikon Inc., priority 2011, dated 2022).

Tested on: A375 melanoma cells (B-Raf V600E mutation)
Test: A375 (A375_P-ERK) cell activity / cell growth inhibition assay
Assay type: cell-based, human
Conditions: Homo sapiens, A-375; A375 cells (text: A375_P-ERK)

IC50	Compound
< 1 µM	CC(C)NS(=O)(=O)Nc1cccc(C(=O)c2c[nH]c3ncc(I)cc23)c1F [P-0071, [2-fluoro-3-(isopropylsulfamoylamino)phenyl]-(5-iodo-1H-pyrrolo[2,3-b]pyridin-3-yl)methanone]
< 1 µM	CCC(C)S(=O)(=O)Nc1cccc(C(=O)c2c[nH]c3ncc(-c4cnc(N5CCCC5)nc4)cc23)c1F (stereo not shown) [P-0225, N-[2-fluoro-3-[5-(2-pyrrolidin-1-ylpyrimidin-5-yl)-1H-pyrrolo[2,3-b]pyridine-3-carbonyl]phenyl]butane-2-sulfonamide]
> 1 µM	O=C(c1cccc(NS(=O)(=O)N2CCCC2)c1F)c1c[nH]c2ncc(-c3ccc(C4(C(=O)O)CC4)cc3)cc12 [P-0243, 1-[4-[3-[2-fluoro-3-(pyrrolidin-1-ylsulfonylamino)benzoyl]-1H-pyrrolo[2,3-b]pyridin-5-yl]phenyl]cyclopropanecarboxylic acid]
< 1 µM	O=C(c1c(F)ccc(NS(=O)(=O)N2CCCC2)c1F)c1c[nH]c2ncc(-c3cc(N4CCOCC4)ncn3)cc12 [P-0318, N-[2,4-difluoro-3-[5-(6-morpholinopyrimidin-4-yl)-1H-pyrrolo[2,3-b]pyridine-3-carbonyl]phenyl]pyrrolidine-1-sulfonamide]
< 1 µM	CCN(C)S(=O)(=O)Nc1cccc(C(=O)c2c[nH]c3ncc(C#N)cc23)c1F [P-0039, 5-cyano-3-[3-[[ethyl(methyl)sulfamoyl]amino]-2-fluoro-benzoyl]-1H-pyrrolo[2,3-b]pyridine]
< 1 µM	CCN(C)S(=O)(=O)Nc1cccc(C(=O)c2c[nH]c3ncc(-c4ccc(C#N)c(OC)c4)cc23)c1F [P-0060, 5-(4-cyano-3-methoxy-phenyl)-3-[3-[[ethyl(methyl)sulfamoyl]amino]-2-fluoro-benzoyl]-1H-pyrrolo[2,3-b]pyridine]
< 1 µM	CCN(C)S(=O)(=O)Nc1cccc(C(=O)c2c[nH]c3ncc(-c4ccc(N(C)C)nc4)cc23)c1F [P-0076, 5-[6-(dimethylamino)-3-pyridyl]-3-[3-[[ethyl(methyl)sulfamoyl]amino]-2-fluoro-benzoyl]-1H-pyrrolo[2,3-b]pyridine]
< 1 µM	COCCN(C)S(=O)(=O)Nc1cccc(C(=O)c2c[nH]c3ncc(-c4ccc(C5(C#N)CC5)cc4)cc23)c1F [P-0080, 5-[4-(1-cyanocyclopropyl)phenyl]-3-[2-fluoro-3-[[2-methoxyethyl(methyl)sulfamoyl]amino]benzoyl]-1H-pyrrolo[2,3-b]pyridine]
< 1 µM	CN(CC1CC1)S(=O)(=O)Nc1cccc(C(=O)c2c[nH]c3ncc(-c4ccc(C5CC5)nc4)cc23)c1F [P-0115, 3-[3-[[cyclopropylmethyl(methyl)sulfamoyl]amino]-2-fluoro-benzoyl]-5-(6-cyclopropyl-3-pyridyl)-1H-pyrrolo[2,3-b]pyridine]
< 1 µM	C[C@@H]1CCN(S(=O)(=O)Nc2cccc(C(=O)c3c[nH]c4ncc(-c5cnc(C6CC6)nc5)cc34)c2F)C1 [P-0271, (3R)—N-[3-[5-(2-cyclopropylpyrimidin-5-yl)-1H-pyrrolo[2,3-b]pyridine-3-carbonyl]-2-fluoro-phenyl]-3-methyl-pyrrolidine-1-sulfonamide]
> 1 µM	CCN(C)S(=O)(=O)Nc1cccc(C(=O)c2c[nH]c3ncc(C4CC4)cc23)c1F [P-0298, 5-cyclopropyl-3-[3-[[ethyl(methyl)sulfamoyl]amino]-2-fluoro-benzoyl]-1H-pyrrolo[2,3-b]pyridine]
< 1 µM	CCNS(=O)(=O)Nc1ccc(F)c(C(=O)c2c[nH]c3ncc(-c4cnc(C5CC5)nc4)cc23)c1F [P-0335, [5-(2-cyclopropylpyrimidin-5-yl)-1H-pyrrolo[2,3-b]pyridin-3-yl]-[3-(ethylsulfamoylamino)-2,6-difluoro-phenyl]methanone]
< 1 µM	O=C(c1cccc(NS(=O)(=O)N2CCCC2)c1F)c1c[nH]c2ncc(-c3ccc(C(F)(F)F)nc3)cc12 [P-0095, N-[2-fluoro-3-[5-[6-(trifluoromethyl)-3-pyridyl]-1H-pyrrolo[2,3-b]pyridine-3-carbonyl]phenyl]pyrrolidine-1-sulfonamide]
< 1 µM	CCN(C)S(=O)(=O)Nc1ccc(F)c(C(=O)c2c[nH]c3ncc(-c4cnc(N(C)C)nc4)cc23)c1F [P-0292, 5-[2-(dimethylamino)pyrimidin-5-yl]-3-[3-[[ethyl(methyl)sulfamoyl]amino]-2,6-difluoro-benzoyl]-1H-pyrrolo[2,3-b]pyridine]
< 1 µM	N#Cc1cncc(-c2cnc3[nH]cc(C(=O)c4cccc(NS(=O)(=O)N5CCCC5)c4F)c3c2)c1 [P-0093, N-[3-[5-(5-cyano-3-pyridyl)-1H-pyrrolo[2,3-b]pyridine-3-carbonyl]-2-fluoro-phenyl]pyrrolidine-1-sulfonamide]
< 1 µM	CCN(C)S(=O)(=O)Nc1ccc(F)c(C(=O)c2c[nH]c3ncc(-c4ccc5c(c4)NC(=O)C5)cc23)c1F [P-0309, 3-[3-[[ethyl(methyl)sulfamoyl]amino]-2,6-difluoro-benzoyl]-5-(2-oxoindolin-6-yl)-1H-pyrrolo[2,3-b]pyridine]
< 1 µM	CC(C)c1ncc(-c2cnc3[nH]cc(C(=O)c4cccc(NS(=O)(=O)N5CCCC5)c4F)c3c2)cn1 [P-0047, N-[2-fluoro-3-[5-(2-isopropylpyrimidin-5-yl)-1H-pyrrolo[2,3-b]pyridine-3-carbonyl]phenyl]pyrrolidine-1-sulfonamide]

IC50	Compound
< 1 µM	CCN(C)S(=O)(=O)Nc1ccc(F)c(C(=O)c2c[nH]c3ncc(Cl)cc23)c1F [P-0012, 5-chloro-3-[3-[[ethyl(methyl)sulfamoyl]amino]-2,6-difluoro-benzoyl]-1H-pyrrolo[2,3-b]pyridine]
< 1 µM	CN(C)S(=O)(=O)Nc1cccc(C(=O)c2c[nH]c3ncc(-c4cnc(NC5CC5)nc4)cc23)c1F [P-0064, 5-[2-(cyclopropylamino)pyrimidin-5-yl]-3-[3-(dimethylsulfamoylamino)-2-fluoro-benzoyl]-1H-pyrrolo[2,3-b]pyridine]
< 1 µM	CCN(C)S(=O)(=O)Nc1ccc(F)c(C(=O)c2c[nH]c3ncc(-c4cnc(N5CCN(C)CC5)nc4)cc23)c1F [P-0263, 3-[3-[[ethyl(methyl)sulfamoyl]amino]-2,6-difluoro-benzoyl]-5-[2-(4-methylpiperazin-1-yl)pyrimidin-5-yl]-1H-pyrrolo[2,3-b]pyridine]
< 1 µM	CC(C)(O)c1nc(-c2cnc3[nH]cc(C(=O)c4c(F)ccc(NS(=O)(=O)N5CCCC5)c4F)c3c2)cs1 [P-0265, N-[2,4-difluoro-3-[5-[2-(1-hydroxy-1-methyl-ethyl)thiazol-4-yl]-1H-pyrrolo[2,3-b]pyridine-3-carbonyl]phenyl]pyrrolidine-1-sulfonamide]
< 1 µM	N#CC1(c2ccc(-c3cnc4[nH]cc(C(=O)c5cccc(NS(=O)(=O)N6CCCC6)c5F)c4c3)cc2)CC1 [P-0050, N-[3-[5-[4-(1-cyanocyclopropyl)phenyl]-1H-pyrrolo[2,3-b]pyridine-3-carbonyl]-2-fluoro-phenyl]pyrrolidine-1-sulfonamide]
< 1 µM	CCCN(C)S(=O)(=O)Nc1cccc(C(=O)c2c[nH]c3ncc(-c4cnc(OC)nc4)cc23)c1F [P-0040, 3-[2-fluoro-3-[[methyl(propyl)sulfamoyl]amino]benzoyl]-5-(2-methoxypyrimidin-5-yl)-1H-pyrrolo[2,3-b]pyridine]
< 1 µM	COCCN(C)S(=O)(=O)Nc1cccc(C(=O)c2c[nH]c3ncc(-c4cnc(NC5CC5)nc4)cc23)c1F [P-0081, 5-[2-(cyclopropylamino)pyrimidin-5-yl]-3-[2-fluoro-3-[[2-methoxyethyl(methyl)sulfamoyl]amino]benzoyl]-1H-pyrrolo[2,3-b]pyridine]
> 1 µM	CCN(C)S(=O)(=O)Nc1ccc(F)c(C(=O)c2c[nH]c3ncc(-c4ccc(N5CCCC5)cc4)cc23)c1F [P-0303, 3-[3-[[ethyl(methyl)sulfamoyl]amino]-2,6-difluoro-benzoyl]-5-(4-pyrrolidin-1-ylphenyl)-1H-pyrrolo[2,3-b]pyridine]
< 1 µM	CCN(C)S(=O)(=O)Nc1cccc(C(=O)c2c[nH]c3ncc(-c4cnc(C#N)nc4)cc23)c1F [P-0100, 5-(2-cyanopyrimidin-5-yl)-3-[3-[[ethyl(methyl)sulfamoyl]amino]-2-fluoro-benzoyl]-1H-pyrrolo[2,3-b]pyridine]
< 1 µM	CN(C)S(=O)(=O)Nc1cccc(C(=O)c2c[nH]c3ncc(-c4ccc(C#N)nc4)cc23)c1F [P-0099, 5-(6-cyano-3-pyridyl)-3-[3-(dimethylsulfamoylamino)-2-fluoro-benzoyl]-1H-pyrrolo[2,3-b]pyridine]
< 1 µM	CCCN(C)S(=O)(=O)Nc1cccc(C(=O)c2c[nH]c3ncc(-c4cnc(C)nc4)cc23)c1F [P-0111, 3-[2-fluoro-3-[[methyl(propyl)sulfamoyl]amino]benzoyl]-5-(2-methylpyrimidin-5-yl)-1H-pyrrolo[2,3-b]pyridine]
> 1 µM	CCN(C)S(=O)(=O)Nc1ccc(F)c(C(=O)c2c[nH]c3ncc(-c4ccnc(F)c4)cc23)c1F [P-0283, 3-[3-[[ethyl(methyl)sulfamoyl]amino]-2,6-difluoro-benzoyl]-5-(2-fluoro-4-pyridyl)-1H-pyrrolo[2,3-b]pyridine]
< 1 µM	CCN(C)S(=O)(=O)Nc1cccc(C(=O)c2c[nH]c3ncc(Br)cc23)c1F [P-0038, 5-bromo-3-[3-[[ethyl(methyl)sulfamoyl]amino]-2-fluoro-benzoyl]-1H-pyrrolo[2,3-b]pyridine]
> 1 µM	NC(=O)C1(c2ccc(-c3cnc4[nH]cc(C(=O)c5cccc(NS(=O)(=O)N6CCCC6)c5F)c4c3)cc2)CC1 [P-0253, 1-[4-[3-[2-fluoro-3-(pyrrolidin-1-ylsulfonylamino)benzoyl]-1H-pyrrolo[2,3-b]pyridin-5-yl]phenyl]cyclopropanecarboxamide]
< 1 µM	CCN(C)S(=O)(=O)Nc1cccc(C(=O)c2c[nH]c3ncc(-c4ccc(F)cc4)cc23)c1F [P-0034]
< 1 µM	CCN(C)S(=O)(=O)Nc1ccc(F)c(C(=O)c2c[nH]c3ncc(-c4cnc(N5CCC(O)CC5)nc4)cc23)c1F [P-0275]
< 1 µM	CCN(C)S(=O)(=O)Nc1ccc(F)c(C(=O)c2c[nH]c3ncc(-c4cncs4)cc23)c1F [P-0315, 5-[3-[3-[[ethyl(methyl)sulfamoyl]amino]-2,6-difluoro-benzoyl]-1H-pyrrolo[2,3-b]pyridin-5-yl]thiazole]
